Experimental data: patent publication US20240287052A1, “NOVEL OXAZOLE DERIVATIVE AND PHARMACEUTICAL COMPOSITION FOR PREVENTING OR TREATING ALLERGIC DISEASES COMPRISING THE SAME” (AZCURIS CO., LTD., priority 2021, published 2024)
Where two headings read alike, the source gives them in different places.

Target: T1, IL33 and ST2 binding (Homo sapiens, UniProt O95760)
T1 sequence (O95760 112-270 limits assumed): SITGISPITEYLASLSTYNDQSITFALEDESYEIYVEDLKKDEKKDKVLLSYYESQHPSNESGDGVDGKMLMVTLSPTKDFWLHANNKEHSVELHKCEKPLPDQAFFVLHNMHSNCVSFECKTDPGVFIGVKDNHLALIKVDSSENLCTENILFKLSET
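Also: plate ELISA with coated Flag-tagged human IL-33 and His-tagged human ST2, bound ST2 detected by anti-His HRP and TMB absorbance at 450 nm, 2 h compound incubation.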

SMILES	inhibition (30 µM) [%]	inhibition (100 µM) [%]
COCCNC(=O)c1nc(-c2ccc(C(F)(F)F)cc2)oc1-c1ccccc1[N+](=O)[O-] [Compound 160, N-(2-Methoxyethyl)-5-(2-nitrophenyl)-2-(4-(trifluoromethyl)phenyl)oxazole-4-carboxamide]	18	29
CN(C)CCNC(=O)c1coc(-c2ccc(C(F)(F)F)cc2)n1 [Compound 114, N-(2-(dimethylamino)ethyl)-2-(4-(trifluoromethyl)phenyl)oxazole-4-carboxamide]	10	9
CCOC(=O)c1nc(-c2ccc(C#N)cc2)oc1-c1ccccc1[N+](=O)[O-] [Compound 80, Ethyl 2-(4-cyanophenyl)-5-(2-nitrophenyl)oxazole-4-carboxylate]	37	89
CN(C)CCNC(=O)c1nc(-c2cccc(OC(F)(F)F)c2)oc1-c1ccccc1[N+](=O)[O-] [Compound 201, N-(2-(Dimethylamino)ethyl)-5-(2-nitrophenyl)-2-(3-(trifluoromethoxy)phenyl)oxazole-4-carboxamide]	-7	-5
CCOC(=O)c1nc(-c2ccc(C(F)(F)F)cc2)oc1-c1cccc(SC)c1 [Compound 40, Ethyl 5-(3-(methylthio)phenyl)-2-(4-(trifluoromethyl)phenyl)oxazole-4-carboxylate]	108	115
CN(C)CCNC(=O)c1nc(-c2ccc(C(C)(C)C)cc2)oc1-c1ccccc1[N+](=O)[O-] [Compound 268, 2-(4-(tert-Butyl)phenyl)-N-(2-(dimethylamino)ethyl)-5-(2-nitrophenyl)oxazole-4-carboxamide]	-15	-6
CN1CCN(CCNC(=O)c2nc(-c3ccc(C(C)(C)C)cc3)oc2-c2ccccc2[N+](=O)[O-])CC1 [Compound 269, 2-(4-(tert-Butyl)phenyl)-N-(2-(4-methylpiperazin-1-yl)ethyl)-5-(2-nitrophenyl)oxazole-4-carboxamide]	33	44
CCOC(=O)c1coc(-c2ccc(SC)cc2)n1 [Compound 22, Ethyl 2-(4-(methylthio)phenyl)oxazole-4-carboxylate]		45
CN(C)CCNC(=O)c1nc(-c2ccc(Cl)cc2)oc1-c1ccccc1 [Compound 244, 2-(4-Chlorophenyl)-N-(2-(dimethylamino)ethyl)-5-phenyloxazole-4-carboxamide]	0	38
CN1CCN(CCNC(=O)c2nc(-c3ccc(OC(F)(F)F)cc3)oc2-c2ccccc2)CC1 [Compound 204, N-(2-(4-Methylpiperazin-1-yl)ethyl)-5-phenyl-2-(4-(trifluoromethoxy)phenyl)oxazole-4-carboxamide]	1	36
CN(C)CCN1CCN(C(=O)c2nc(-c3ccc(F)cc3)oc2-c2ccccc2[N+](=O)[O-])CC1 [Compound 228, (4-(2-(Dimethylamino)ethyl)piperazin-1-yl)(2-(4-fluorophenyl)-5-(2-nitrophenyl)oxazol-4-yl)methanone]	24	43
O=C(c1nc(-c2ccc(C(F)(F)F)cc2)oc1-c1ccccc1[N+](=O)[O-])N1CCN(CCO)CC1 [Compound 169, (4-(2-Hydroxyethyl)piperazin-1-yl)(5-(2-nitrophenyl)-2-(4-(trifluoromethyl)phenyl)oxazol-4-yl)methanone]	-4	7
CN1CCN(CCNC(=O)c2nc(-c3ccc(F)c(F)c3)oc2-c2ccccc2[N+](=O)[O-])CC1 [Compound 234, 2-(3,4-Difluorophenyl)-N-(2-(4-methylpiperazin-1-yl)ethyl)-5-(2-nitrophenyl)oxazole-4-carboxamide]	13	19
COCCNC(=O)c1nc(-c2ccc(C(F)(F)F)cc2)oc1-c1cccc(SC)c1 [Compound 293, N-(2-Methoxyethyl)-5-(3-(methylthio)phenyl)-2-(4-(trifluoromethyl)phenyl)oxazole-4-carboxamide]	40	107
CN(C)CCNC(=O)c1nc(-c2ccc(C(C)(C)C)cc2)oc1-c1ccccc1 [Compound 265, 2-(4-(tert-Butyl)phenyl)-N-(2-(dimethylamino)ethyl)-5-phenyloxazole-4-carboxamide]	5	14
CC(C)N(CCN1CCN(C(=O)c2nc(-c3ccc(C(F)(F)F)cc3)oc2-c2ccccc2[N+](=O)[O-])CC1)C(C)C [Compound 167, (4-(2-(Diisopropylamino)ethyl)piperazin-1-yl)(5-(2-nitrophenyl)-2-(4-(trifluoromethyl)phenyl)oxazol-4-yl)methanone]	-24	-9
CN(C)CCNC(=O)c1nc(-c2cccc(F)c2)oc1-c1ccccc1[N+](=O)[O-] [Compound 222, N-(2-(Dimethylamino)ethyl)-2-(3-fluorophenyl)-5-(2-nitrophenyl)oxazole-4-carboxamide]	-28	-16
CN(C)CCNC(=O)c1nc(-c2cccc(C(F)(F)F)c2)oc1-c1ccccc1 [Compound 121, N-(2-(Dimethylamino)ethyl)-5-phenyl-2-(3-(trifluoromethyl)phenyl)oxazole-4-carboxamide]	-20	-18
CC(C)N1CCN(C(=O)c2nc(-c3ccc(C(F)(F)F)cc3)oc2-c2ccccc2[N+](=O)[O-])CC1 [Compound 168, (4-Isopropylpiperazin-1-yl)(5-(2-nitrophenyl)-2-(4-(trifluoromethyl)phenyl)oxazol-4-yl)methanone]	12	-12
COc1ccc(-c2nc(C(=O)N3CCN(CCN(C)C)CC3)c(-c3ccccc3[N+](=O)[O-])o2)cc1 [Compound 216, (4-(2-(Dimethylamino)ethyl)piperazin-1-yl)(2-(4-methoxyphenyl)-5-(2-nitrophenyl)oxazol-4-yl)methanone]	46	84
CN1CCN(CCNC(=O)c2nc(-c3cccc(Cl)c3)oc2-c2ccccc2)CC1 [Compound 241, 2-(3-Chlorophenyl)-N-(2-(4-methylpiperazin-1-yl)ethyl)-5-phenyloxazole-4-carboxamide]	31	38
CN(C)CCNC(=O)c1nc(-c2ccc(C(F)(F)F)cc2)oc1-c1ccccc1 [Compound 126, N-(2-(Dimethylamino)ethyl)-5-phenyl-2-(4-(trifluoromethyl)phenyl)oxazole-4-carboxamide]	-14	6
CC(=O)Nc1ccc(NC(=O)c2nc(-c3ccc(C(F)(F)F)cc3)oc2-c2ccccc2[N+](=O)[O-])cc1 [Compound 175, N-(4-Acetamidophenyl)-5-(2-nitrophenyl)-2-(4-(trifluoromethyl)phenyl)oxazole-4-carboxamide]	27	53
CN1CCN(CCNC(=O)c2nc(-c3ccc(F)cc3)oc2-c2ccc([N+](=O)[O-])cc2)CC1 [Compound 230, 2-(4-Fluorophenyl)-N-(2-(4-methylpiperazin-1-yl)ethyl)-5-(4-nitrophenyl)oxazole-4-carboxamide]	15	0
